Values after ≈ are worked out from the molar mass of the structure shown.
Columns and labels:
[1] = test system: Caspase-3; test: Caspase-3 induction in KB cells (colorimetric substrate DEVD-pNA); type: cell-based, Human; conditions: 5ug/ml
Method: Human squamous cell carcinoma (KB) were plated in a 25 cm^2 flask. When cultures achieved confluence, the cyclopentenone derivative of structure 20 was added to the cells. The final concentration of derivative of the structure 20 in the flask was 5ug/ml. The untreated wells served as controls. The cells were incubated with the drug for 2 different time points of 6 and 16 hours at 37°C. The cells were collected by centrifugation at 2000 r.p.m. for 10 minutes. The supernatant was gently removed and discarded while Lysis Buffer was added to the cell pellet (25ul of lysis buffer per […]). The cell lysate was incubated on ice for 10 minutes and centrifuged at 10,000-x g for 1 minute. The supernatant was transferred to a new tube and kept on ice. 50ul of the cell lysate was added in a 96 well plate. To this was added 2x Reaction Buffer. Prior to using reaction buffer, 10ul of fresh DTT stock per 1 ml of 2x Reaction Buffer was added. To each well 5ul of Caspase-3 colorimetric substrate (DEVD-pNA) was added. The plate was incubated for 1-2 hours at […]. and read at 405nm.
The level of caspase enzymatic activity in the cell lysate is directly proportional to the absorbance at 405nm. […]

[2] = test system: tubulin; test: tubulin polymerization in vitro (absorbance at 340 nm); type: biochemical; conditions: tubulin 1mg/ml, 37°C, pH 6.9; read-out: IC50 values (uM) for inhibition of Tubulin Polymerization
Method: The cyclopentenone derivatives were checked for their effects on tubulin polymerization in vitro. Briefly, the tubulin assembly reaction was performed at 37°C in buffer containing 80 mM PIPES, 1mM EGTA, 1.0 mM GTP and 1mM MgCl2 (pH 6.9) at a tubulin concentration of 1mg/ml in the presence or absence of the cyclopentenone derivatives. The final concentration of the cyclopentenone derivatives in the reaction mixture varied from 1-5uM. The derivatives were dissolved in 0.1% DMSO. The control experiments were carried out with 0.1% DMSO. The tubulin polymerization was followed by measurement of the absorbance of the solution at 340 nm every 30 seconds. […] Thus the cyclopentenone derivatives mediated their observed anticancer activities by tubulin depolymerization.

[3] = test system: MIAPaCa2; test: three day MTT cytotoxicity assay; type: cell-based, human; conditions: MIAPaCa2 (Pancreas), 72 hours
Method: (§1) A number of the cyclopentenone derivatives were tested for cytotoxicity against 9 human tumor cell lines. Briefly, a three day MTT cytotoxicity assay was performed, which is based on the principle of uptake of MTT (3-(4,5-dimethylthiazol-2-yl)-2,5-diphenyl tetrazolium bromide), a tetrazolium salt, by the metabolically active cells where it is metabolized by active mitochondria into a blue colored formazan product that is read spectrophotometrically. MTT was dissolved in phosphate buffered saline with a pH of 7.4 to obtain an MTT concentration of 5mg/ml; the resulting mixture was filtered through a 0.22 micron filter to sterilize and remove a small amount of insoluble residue. For each type of tumor cell, 10000 to 15000 cells were seeded in a 96-well culture plate and incubated with the individual cyclopentenone derivatives in a CO2 incubator for a total of 72 hours. Control cells not treated with the cyclopentenone derivatives were similarly incubated. The assay was terminated by adding 100 ug (20 ul) of MTT to each well, then incubating for additional one hour, and finally adding 50 ul of 10% SDS-0.01N HCl to each well to lyse the cells and dissolve formazan. After incubating for one hour, the plate was read spectrophotometrically at 540 nm and the percentage of cytotoxicity calculated using the following formula: Cytotoxicity percentage = 100 × [1-(X/R1)], [formula] where X = (absorbance of treated sample at 540 nm) - (absorbance of blank at 540 nm) R1 = absorbance of control sample at 540 nm.
(§2) The ED50 Values of the cytotoxicity defined as the concentration at which 50 % of the cells are killed in vitro was calculated for each cell line treated with each of the cyclopentenone derivatives.
(§3) The cell lines are PTC (all colon), MOLT-4 (leukemia), SW620 […], DU145 (prostate), KB (oral squamous cell), L132 (lung), MIAPaCa2 (Pancreas), Hep2, (larynx), PA-1 (ovary), HuTu80 (duodenum), ECV 304 (endothelial), and 293 (kidney).

[4] = test system: Hep2; test: three day MTT cytotoxicity assay; type: cell-based, human; conditions: Hep2 (larynx), 72 hours
Method: as §1, §2, §3

[5] = test system: PA-1; test: three day MTT cytotoxicity assay; type: cell-based, human; conditions: PA-1 (ovary), 72 hours
Method: as §1, §2, §3

[6] = test system: ECV 304; test: three day MTT cytotoxicity assay; type: cell-based, human; conditions: ECV 304 (endothelial), 72 hours
Method: as §1, §2, §3

[7] = test system: 293; test: three day MTT cytotoxicity assay; type: cell-based, human; conditions: 293 (kidney), 72 hours
Method: as §1, §2, §3

[8] = test system: PTC; test: three day MTT cytotoxicity assay; type: cell-based, human; conditions: PTC (colon), 72 hours
Method: as §1, §2, §3

[9] = test system: KB; test: three day MTT cytotoxicity assay; type: cell-based, human; conditions: KB (oral squamous cell), 72 hours
Method: as §1, §2, §3

[10] = test system: L132; test: three day MTT cytotoxicity assay; type: cell-based, human; conditions: L132 (lung), 72 hours
Method: as §1, §2, §3

[11] = test system: DU145; test: three day MTT cytotoxicity assay; type: cell-based, human; conditions: DU145 (prostate), 72 hours
Method: as §1, §2, §3

[12] = test system: HuTu80; test: three day MTT cytotoxicity assay; type: cell-based, human; conditions: HuTu80 (duodenum), 72 hours
Method: as §1, §2, §3

[13] = test system: SW620; test: three day MTT cytotoxicity assay; type: cell-based, human; conditions: 72 hours
Method: as §1, §2, §3

[14] = test system: MOLT-4; test: three day MTT cytotoxicity assay; type: cell-based, human; conditions: MOLT-4 (leukemia), 72 hours
Method: as §1, §2, §3

[15] = test system: VEGF; test: VEGF levels in ECV304 endothelial cells (ELISA); type: cell-based, Human; conditions: 5ug/ml, 4 hours
Method: Human endothelial cells (ECV304) were plated at the density of 8-10 x10^5 cells per 2 ml in a six well plate. After an overnight incubation of cells at 37°C, cyclopentenone derivatives at a concentration of 5ug/ml was added to the wells. The untreated wells served as controls. The plates were incubated for 4 hours at 37°C. The medium was collected from all the wells (control and treated) and spun down at 2000 r.p.m to remove the cellular material. The supernatant was collected and used for ELISA (Quantikine human VEGF, R&D Systems). The assay employs the quantitative sandwich enzyme immunoassay technique. A monoclonal antibody specific for VEGF has been pre-coated onto a microplate. Standards and samples were pipetted into the wells and VEGF present was bound by the immobilized antibody. After washing away the unbound substances, an enzyme-linked polyclonal antibody specific for VEGF was added to the wells. Following a wash to remove any unbound antibody-enzyme reagent, a substrate solution was added to the wells and color developed in proportion to the amount of VEGF bound in the initial step. The optical density of each well was determined within 30 minutes using a microplate reader set to 450nm and reference wavelength at 540nm. The VEGF levels were inhibited by the addition of cyclopentenone derivatives in vitro.

[16] = test system: PTC tumor xenografts; test: In vivo anti-tumor activity on PTC tumor xenografts; parameters: species or system Balb/c athymic mice; conditions: intravenously 0.5 mg/100 µL once a day for 14 days, day 23, compared to controls
Method: PTC tumor xenografts were grown in Balb/c athymic mice by subcutaneous inoculation of a single cell suspension of PTC cells (15 X 10^6 cells/100 µL). The tumor bearing animals were divided into 2 groups of three animals each including one group comprising untreated control animals. Treatment with compound of formula no. 49 was initiated when the average tumor volumes, as measured using a vernier caliper, were […]. Compound of formula no. 49 was administered intravenously to the assigned group of tumor bearing animals at a dose of 0.5 mg/100 µL once a day and the treatment was continued for a period of 14 days.
The antitumor activity of the compound was monitored by measuring tumor volumes every fourth day using the formula W*W*L*0.4 (W = smaller diameter, L = larger diameter). The percentage inhibition of tumor growth was calculated using the formula (1- tumor volume-treated / tumor volume-control) * 100. […] Compound of formula no. […] The percentage inhibition of tumor growth caused compound of formula no. 49 as compared to controls on day 23 was 45.8%.

## COc1ccc(C2=C(c3cc(OC)c(OC)c(OC)c3)C(=O)CC2O)cc1O (stereo not drawn) [Compound 39]
[1]
  Percent Induction of Caspase-3 6 hours: 12.8 ± 0.2%
  Percent Induction of Caspase-3 16 hours: 17.0 ± 1.5%
[2]
  IC50: 1.4 ± 0.6 µM
[3]
  ED50 (ug/ml) MiaPaca: >100 µg/mL
[4]
  ED50 (ug/ml) Hep2: <1 µg/mL
[5]
  ED50 (ug/ml) PA1: <1 µg/mL
[6]
  ED50 (ug/ml) ECV 304: >100 µg/mL
[7]
  ED50 (ug/ml) 293: >100 µg/mL
[8]
  ED50 (ug/ml) PTC: 78 ± 4.0 µg/mL (≈ 202 µM)
[9]
  ED50 (ug/ml) KB: <1 µg/mL
[10]
  ED50 (ug/ml) L132: <1 µg/mL
[11]
  ED50 (ug/ml) DU145: 8 ± 1.5 µg/mL (≈ 20.7 µM)
[12]
  ED50 (ug/ml) HuTu80: 1.5 ± 0.1 µg/mL (≈ 3.88 µM)
[13]; SW620 (colon)
  ED50 (ug/ml) SW620: <1 µg/mL
[14]
  ED50 (ug/ml) MOLT4: 62.5 ± 5.0 µg/mL (≈ 162 µM)
[15]
  Percent Reduction in VEGF: 21.9 ± 1.5%

## COc1ccc(C2=C(c3cc(OC)c(OC)c(OC)c3)C(=NO)C(O)C2)cc1 (stereo not drawn) [Compound 49]
[1]
  Percent Induction of Caspase-3 6 hours: 26.7 ± 2.8%
  Percent Induction of Caspase-3 16 hours: 31.9 ± 3.2%
[16]
  percentage inhibition of tumor growth: 45.8%
[2]
  IC50: 2.3 ± 0.5 µM
[3]
  ED50 (ug/ml) MiaPaca: 24 ± 3.5 µg/mL (≈ 62.3 µM)
[4]
  ED50 (ug/ml) Hep2: <1.0 µg/mL
[5]
  ED50 (ug/ml) PA1: <1.0 µg/mL
[6]
  ED50 (ug/ml) ECV 304: >100 µg/mL
[8]
  ED50 (ug/ml) PTC: <1.0 µg/mL
[9]
  ED50 (ug/ml) KB: <1.0 µg/mL
[10]
  ED50 (ug/ml) L132: < 1.0 µg/mL
[11]
  ED50 (ug/ml) DU145: >100 µg/mL
[13]; SW620 (ovary)
  ED50 (ug/ml) SW620: <1.0 µg/mL
[14]
  ED50 (ug/ml) MOLT4: <1.0 µg/mL
[15]
  Percent Reduction in VEGF: 38.6 ± 1.9%

## COc1ccc(C2=C(c3cc(OC)c(OC)c(OC)c3)/C(=N\O)C(O)C2)cc1F (stereo not drawn) [Compound 66]
[1]
  Percent Induction of Caspase-3 6 hours: 17.0 ± 1.0%
  Percent Induction of Caspase-3 16 hours: 22.1 ± 0.6%
[2]
  IC50: 2 ± 0.6 µM
[3]
  ED50 (ug/ml) MiaPaca: 94 ± 10.0 µg/mL (≈ 233 µM)
[4]
  ED50 (ug/ml) Hep2: <1 µg/mL
[6]
  ED50 (ug/ml) ECV 304: 43 ± 4.5 µg/mL (≈ 107 µM)
[7]
  ED50 (ug/ml) 293: >100 µg/mL
[8]
  ED50 (ug/ml) PTC: 27 ± 3.5 µg/mL (≈ 66.9 µM)
[9]
  ED50 (ug/ml) KB: <1 µg/mL
[10]
  ED50 (ug/ml) L132: <1 µg/mL
[11]
  ED50 (ug/ml) DU145: 10 ± 5.1 µg/mL (≈ 24.8 µM)
[12]
  ED50 (ug/ml) HuTu80: 9 ± 3.1 µg/mL (≈ 22.3 µM)
[13]; SW620 (colon)
  ED50 (ug/ml) SW620: <1 µg/mL
[15]
  Percent Reduction in VEGF: 12.9 ± 2.9%
